Experiment [1] concerns HEK293. As to the kind of experiment: cells. The format is functional, cell-based. The conditions noted are these: Homo sapiens.
Experiment [2] in a line: HepG2 cell cytotoxicity, dose response, cytotoxicity control for Shn3 inhibitor project, CellTiter-Glo, cherry-picked (AID 624134). The format is functional, cell-based.
Experiment [3] has as its system HEK293. As to the kind of experiment: cells. The format is functional, cell-based. Conditions: Homo sapiens. The source holds these as a separate data set.
In experiment [4] the target is Nucleotide-binding oligomerization domain-containing protein 2 (Homo sapiens, UniProt Q9HC29). Description: NOD2 signaling inhibitors, cell-based, luminescence, uHTS, HEK293 (AID 1566). The format is functional.
Nucleotide-binding oligomerization domain-containing protein 2, sequence (Q9HC29 whole entry, the tested form may be a part): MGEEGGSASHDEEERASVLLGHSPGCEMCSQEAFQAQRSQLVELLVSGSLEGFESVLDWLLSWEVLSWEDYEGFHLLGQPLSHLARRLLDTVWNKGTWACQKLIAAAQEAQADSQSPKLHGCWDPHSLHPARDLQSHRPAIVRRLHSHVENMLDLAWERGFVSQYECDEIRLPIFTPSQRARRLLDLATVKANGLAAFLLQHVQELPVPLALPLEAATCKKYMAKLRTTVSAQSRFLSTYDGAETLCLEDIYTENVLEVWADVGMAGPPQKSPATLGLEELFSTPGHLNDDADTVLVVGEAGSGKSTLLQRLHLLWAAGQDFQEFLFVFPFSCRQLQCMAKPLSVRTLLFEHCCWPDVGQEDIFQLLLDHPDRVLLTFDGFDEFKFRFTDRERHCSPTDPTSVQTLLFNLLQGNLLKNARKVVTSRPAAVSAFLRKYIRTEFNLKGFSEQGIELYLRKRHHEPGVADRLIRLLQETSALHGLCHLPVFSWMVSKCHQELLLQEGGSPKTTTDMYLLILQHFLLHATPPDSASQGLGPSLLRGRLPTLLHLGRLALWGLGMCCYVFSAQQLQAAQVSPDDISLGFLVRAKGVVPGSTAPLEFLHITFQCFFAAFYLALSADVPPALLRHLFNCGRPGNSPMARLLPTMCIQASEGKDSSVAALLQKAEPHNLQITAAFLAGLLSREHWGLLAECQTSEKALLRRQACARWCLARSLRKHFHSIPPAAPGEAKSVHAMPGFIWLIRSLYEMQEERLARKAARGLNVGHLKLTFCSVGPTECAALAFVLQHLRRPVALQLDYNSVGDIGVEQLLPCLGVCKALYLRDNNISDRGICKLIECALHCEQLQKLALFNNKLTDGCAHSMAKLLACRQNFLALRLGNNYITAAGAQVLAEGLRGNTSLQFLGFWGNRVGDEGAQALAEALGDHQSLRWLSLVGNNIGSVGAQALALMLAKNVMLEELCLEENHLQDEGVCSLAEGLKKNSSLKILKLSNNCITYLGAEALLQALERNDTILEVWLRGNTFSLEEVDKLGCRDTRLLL
The test system of experiment [5] is HEK293. As to the kind of experiment: NOD1 signaling inhibitors, primary screen, cell-based, luminescence, uHTS (AID 1578). The conditions noted are these: Homo sapiens. In kind it is functional.
Experiment [6] addresses Nucleotide-binding oligomerization domain-containing protein 1 (Homo sapiens, UniProt Q9Y239). As to the kind of experiment: NOD1 signaling inhibitors, SAR follow-up, revised (AID 2333). The format is functional.
The target of the next experiment is Tumor necrosis factor (Homo sapiens, UniProt P01375). As to the kind of experiment: TNFa-triggered NF-kB activation inhibitors, SAR follow-up, cell-based, revised (AID 2337). In kind it is functional.
Tumor necrosis factor, sequence (P01375 whole entry): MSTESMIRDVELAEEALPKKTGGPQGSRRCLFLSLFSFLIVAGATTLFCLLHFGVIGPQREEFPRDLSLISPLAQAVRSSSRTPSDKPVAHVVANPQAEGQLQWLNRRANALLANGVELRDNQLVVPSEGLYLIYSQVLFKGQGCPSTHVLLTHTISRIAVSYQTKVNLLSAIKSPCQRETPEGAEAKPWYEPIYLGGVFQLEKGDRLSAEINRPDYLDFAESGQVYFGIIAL
For experiment [7], the system named is HEK293. As to the kind of experiment: cells. The format is functional, cell-based. The conditions noted are these: Homo sapiens. The source holds these as a separate data set.
Experiment [8] is described as follows: Shn3 3'UTR reporter inhibitors, dose response, cell-based, Clone20 osteoblasts, firefly luciferase, cherry-picked (AID 624132).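 Also: firefly luciferase luminescence from reporter carrying the Shn3 3'UTR in osteoblasts.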 The format is functional.
The subject of experiment [9] is HEK293. Description: NOD2 signaling inhibitors in MDP-stimulated cells, cell-based, uHTS, luminescence (AID 2001). In kind it is functional. Conditions: Homo sapiens.
Another experiment addresses Paired box protein Pax-8 (Homo sapiens, UniProt Q06710). Description: inhibitors of PAX8-driven TPO luciferase reporter, dose response, RMG-I cells, cherry-pick (AID 687027).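 Also: luciferase reporter driven by Pax8 target thyroperoxidase promoter measured by SteadyGlo luminescence.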 The format is functional, cell-based. On the technique in general: A reporter such as luciferase makes a cellular process visible.
Experiment [10] is described as follows: control 3'UTR Renilla luciferase suppression, dose response, counter-screen for Shn3 inhibitor project, cell-based, Clone20-Shn3RL, cherry-picked (AID 624133). In kind it is functional. (Counterscreens check selectivity or assay interference.)
In experiment [11] the test system is HEK293. As to the kind of experiment: cells. The conditions noted are these: Homo sapiens.
In experiment [12] the target is T1, Zinc finger protein mex-5 (Caenorhabditis elegans, UniProt Q9XUB2).
T1 sequence (Q9XUB2 whole entry): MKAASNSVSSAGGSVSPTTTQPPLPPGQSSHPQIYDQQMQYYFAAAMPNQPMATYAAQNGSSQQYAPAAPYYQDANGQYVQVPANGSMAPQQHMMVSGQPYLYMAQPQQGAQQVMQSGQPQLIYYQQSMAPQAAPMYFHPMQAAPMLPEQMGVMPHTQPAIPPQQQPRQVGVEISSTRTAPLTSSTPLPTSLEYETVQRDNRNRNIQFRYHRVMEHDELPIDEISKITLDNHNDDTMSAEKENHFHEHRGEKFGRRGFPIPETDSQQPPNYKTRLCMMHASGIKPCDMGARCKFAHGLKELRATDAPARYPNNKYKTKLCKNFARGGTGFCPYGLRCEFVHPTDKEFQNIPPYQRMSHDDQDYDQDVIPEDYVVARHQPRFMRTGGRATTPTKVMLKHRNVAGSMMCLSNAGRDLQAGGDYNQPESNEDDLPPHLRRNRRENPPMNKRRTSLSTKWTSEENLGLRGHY
Description: MEX-5/TCR-2 RNA interaction inhibitors, dose response, biochemical, C. elegans, fluorescence polarization (AID 1960). For orientation: Polarisation of emitted light reports the rotation of a fluorescent probe.

The target of experiment [13] is Intestinal-type alkaline phosphatase (Mus musculus, UniProt P24822). Description: mouse intestinal alkaline phosphatase activators, dose response, biochemical, luminescence, uHTS hits (AID 488783). In kind it is functional.
Intestinal-type alkaline phosphatase (Mus musculus, UniProt P24822), sequence (P24822 whole entry): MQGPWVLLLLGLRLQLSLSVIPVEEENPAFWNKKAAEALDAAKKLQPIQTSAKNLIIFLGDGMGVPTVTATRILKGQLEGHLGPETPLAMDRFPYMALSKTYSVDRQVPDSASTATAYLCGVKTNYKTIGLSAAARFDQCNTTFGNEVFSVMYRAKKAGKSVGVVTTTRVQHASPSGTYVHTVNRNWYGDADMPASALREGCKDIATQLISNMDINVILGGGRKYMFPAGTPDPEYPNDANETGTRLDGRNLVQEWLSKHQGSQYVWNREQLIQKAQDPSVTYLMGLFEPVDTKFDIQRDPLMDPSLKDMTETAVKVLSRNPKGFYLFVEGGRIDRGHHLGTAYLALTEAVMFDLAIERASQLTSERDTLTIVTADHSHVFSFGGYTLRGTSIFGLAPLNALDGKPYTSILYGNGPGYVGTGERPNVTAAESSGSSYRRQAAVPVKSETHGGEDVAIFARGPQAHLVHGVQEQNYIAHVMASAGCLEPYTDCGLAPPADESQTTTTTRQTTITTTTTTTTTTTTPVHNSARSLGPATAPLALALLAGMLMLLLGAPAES
For experiment [14], the target named is Intestinal-type alkaline phosphatase (Homo sapiens, UniProt P09923). As to the kind of experiment: activation of human intestinal alkaline phosphatase – biochemical, dose response (AID 488873). The format is functional.
Intestinal-type alkaline phosphatase (Homo sapiens, UniProt P09923), sequence (P09923 whole entry): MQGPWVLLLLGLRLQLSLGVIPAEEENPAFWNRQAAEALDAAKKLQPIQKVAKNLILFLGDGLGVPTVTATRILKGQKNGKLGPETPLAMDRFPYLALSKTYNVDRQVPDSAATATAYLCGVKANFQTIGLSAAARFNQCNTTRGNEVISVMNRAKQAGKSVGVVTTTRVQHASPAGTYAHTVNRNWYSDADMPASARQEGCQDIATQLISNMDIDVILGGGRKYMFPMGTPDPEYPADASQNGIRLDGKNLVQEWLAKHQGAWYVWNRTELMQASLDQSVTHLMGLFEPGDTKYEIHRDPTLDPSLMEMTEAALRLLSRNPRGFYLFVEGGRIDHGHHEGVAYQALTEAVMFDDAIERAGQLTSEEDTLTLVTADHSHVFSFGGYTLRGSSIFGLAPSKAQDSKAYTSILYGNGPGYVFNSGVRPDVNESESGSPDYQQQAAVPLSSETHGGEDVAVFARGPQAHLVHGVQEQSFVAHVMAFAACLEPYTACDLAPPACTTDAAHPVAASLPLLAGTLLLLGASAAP
Experiment [15] has as its target T2, RNA-binding protein pos-1 (Caenorhabditis elegans, UniProt G5EF15).
T2 sequence (G5EF15 whole entry): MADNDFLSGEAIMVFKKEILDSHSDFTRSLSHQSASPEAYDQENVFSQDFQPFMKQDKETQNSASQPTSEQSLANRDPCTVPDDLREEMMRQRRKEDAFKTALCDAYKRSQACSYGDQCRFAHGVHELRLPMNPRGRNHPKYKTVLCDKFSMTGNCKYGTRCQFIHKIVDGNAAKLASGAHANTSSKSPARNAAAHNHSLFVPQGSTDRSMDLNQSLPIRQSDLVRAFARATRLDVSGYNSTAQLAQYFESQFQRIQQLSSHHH
As to the kind of experiment: inhibitors of POS-1/mex-3 RNA binding, dose response, biochemical, fluorescence polarization (AID 1964).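 Also: purified POS-1 fused to maltose binding protein made in E. coli; potency of compounds blocking POS-1 binding to fluorescent RNA.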

Experiment [16] has as its target T3, Alkaline phosphatase, tissue-nonspecific isozyme (Homo sapiens, UniProt P05186).
T3 sequence (P05186 whole entry): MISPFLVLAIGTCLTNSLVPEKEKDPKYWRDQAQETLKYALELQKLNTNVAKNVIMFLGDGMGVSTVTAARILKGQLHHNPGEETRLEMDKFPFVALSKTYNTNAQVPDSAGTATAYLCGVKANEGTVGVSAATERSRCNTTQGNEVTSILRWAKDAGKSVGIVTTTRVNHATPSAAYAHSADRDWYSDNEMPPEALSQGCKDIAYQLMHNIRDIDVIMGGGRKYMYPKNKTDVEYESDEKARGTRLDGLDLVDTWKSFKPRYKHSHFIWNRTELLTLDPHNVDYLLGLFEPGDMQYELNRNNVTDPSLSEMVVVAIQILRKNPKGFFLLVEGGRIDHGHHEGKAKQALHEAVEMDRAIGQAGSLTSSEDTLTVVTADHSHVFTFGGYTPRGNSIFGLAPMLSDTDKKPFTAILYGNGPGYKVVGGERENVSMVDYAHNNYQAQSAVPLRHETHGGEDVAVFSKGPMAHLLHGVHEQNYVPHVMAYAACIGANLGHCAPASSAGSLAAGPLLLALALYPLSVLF
Description: TNAP enzyme activators, dose response, selectivity assay for mouse IAP activator project, biochemical, TNAP isozyme, mouse IAP uHTS hits (AID 488880). The format is functional.

Experiment [17] is described as follows: cytotoxicity in MIN6 insulinoma cells, dose response, cytotoxicity control, cell-based, mouse insulinoma (AID 2122).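 Also: confirmatory high-throughput counterscreen run to flag cytotoxic compounds; mouse MIN-6 beta cells carrying an insulin promoter eGFP reporter.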 The format is functional.
A short description of experiment [18]: insulin promoter down-regulators in MIN6 cells, imaging, high-content screening, mouse beta cells (AID 1628). In kind it is functional.
Experiment [19] can be described thus: cytotoxicity in HEK-293T cells, dose response, cytotoxicity control for TCR NF-kB inhibitor project, luminescence, T-cell screen hits (AID 489026).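 Also: cells exposed to compound about 14 hours before the viability readout.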 The format is functional, cell-based.
Experiment [20] concerns the target T4, Mannose-6-phosphate isomerase (Homo sapiens, UniProt P34949).
T4 sequence (P34949 whole entry): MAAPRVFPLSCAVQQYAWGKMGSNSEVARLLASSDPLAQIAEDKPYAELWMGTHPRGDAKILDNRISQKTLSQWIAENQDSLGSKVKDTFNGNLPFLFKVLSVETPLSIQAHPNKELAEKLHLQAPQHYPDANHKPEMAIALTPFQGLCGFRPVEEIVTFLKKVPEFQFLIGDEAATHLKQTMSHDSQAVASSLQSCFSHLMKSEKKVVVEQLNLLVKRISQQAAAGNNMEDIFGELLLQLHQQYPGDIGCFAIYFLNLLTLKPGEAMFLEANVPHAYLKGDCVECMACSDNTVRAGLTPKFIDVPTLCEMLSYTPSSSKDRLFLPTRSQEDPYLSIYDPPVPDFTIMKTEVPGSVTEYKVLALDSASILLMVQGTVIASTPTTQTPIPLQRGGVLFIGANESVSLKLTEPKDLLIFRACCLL
Description: inhibitors of human PMI, primary screen, biochemical, fluorescence intensity, coupled assay (AID 1209).

The target in another experiment is Phosphomannomutase 2 (Homo sapiens, UniProt O15305). Description: Counter screen SAR assay for PMM2 inhibitors via a fluorescence intensity assay. [Related pubchem assays (depositor defined):AID1545, AID1574].
Phosphomannomutase 2, sequence (O15305 whole entry): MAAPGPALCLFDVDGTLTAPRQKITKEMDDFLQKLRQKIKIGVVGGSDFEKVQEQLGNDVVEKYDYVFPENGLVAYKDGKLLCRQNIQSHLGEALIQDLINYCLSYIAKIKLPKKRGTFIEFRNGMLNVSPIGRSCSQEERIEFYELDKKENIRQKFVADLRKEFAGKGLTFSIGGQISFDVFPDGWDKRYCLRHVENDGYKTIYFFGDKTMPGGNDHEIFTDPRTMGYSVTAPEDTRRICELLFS
The target in experiment [21] is T4, Mannose-6-phosphate isomerase. Description: PMI enzyme inhibitors, confirmation, biochemical, fluorescence intensity (AID 1535).
In experiment [22] the target is DNA dC->dU-editing enzyme APOBEC-3G (Homo sapiens, UniProt Q9HC16). As to the kind of experiment: Dose Response confirmation of small molecule APOBEC3G DNA Deaminase Inhibitors via a fluorescence-based single-stranded DNA deaminase assay. [Related pubchem assays (depositor defined):AID493012, AID493028]. In kind it is functional.
DNA dC->dU-editing enzyme APOBEC-3G, sequence (Q9HC16 whole entry): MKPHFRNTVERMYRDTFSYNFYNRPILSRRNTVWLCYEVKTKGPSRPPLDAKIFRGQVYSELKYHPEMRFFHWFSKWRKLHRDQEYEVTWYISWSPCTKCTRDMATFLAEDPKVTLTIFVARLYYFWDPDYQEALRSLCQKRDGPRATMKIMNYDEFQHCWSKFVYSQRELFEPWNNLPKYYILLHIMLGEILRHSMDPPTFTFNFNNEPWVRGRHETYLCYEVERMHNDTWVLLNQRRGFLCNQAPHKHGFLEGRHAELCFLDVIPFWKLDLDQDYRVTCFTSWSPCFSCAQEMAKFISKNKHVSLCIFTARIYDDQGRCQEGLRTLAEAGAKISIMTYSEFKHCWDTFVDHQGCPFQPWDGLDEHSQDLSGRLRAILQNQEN
Experiment [23] addresses DNA dC->dU-editing enzyme APOBEC-3A (Homo sapiens, UniProt P31941). As to the kind of experiment: APOBEC3A DNA deaminase inhibitors, dose response, biochemical (AID 504722). The format is functional.

Each structure is given as a SMILES string. Calls of active or inactive are those of the source. Bounds are passed on as bounds.

Paired box protein Pax-8, sequence (Q06710 whole entry): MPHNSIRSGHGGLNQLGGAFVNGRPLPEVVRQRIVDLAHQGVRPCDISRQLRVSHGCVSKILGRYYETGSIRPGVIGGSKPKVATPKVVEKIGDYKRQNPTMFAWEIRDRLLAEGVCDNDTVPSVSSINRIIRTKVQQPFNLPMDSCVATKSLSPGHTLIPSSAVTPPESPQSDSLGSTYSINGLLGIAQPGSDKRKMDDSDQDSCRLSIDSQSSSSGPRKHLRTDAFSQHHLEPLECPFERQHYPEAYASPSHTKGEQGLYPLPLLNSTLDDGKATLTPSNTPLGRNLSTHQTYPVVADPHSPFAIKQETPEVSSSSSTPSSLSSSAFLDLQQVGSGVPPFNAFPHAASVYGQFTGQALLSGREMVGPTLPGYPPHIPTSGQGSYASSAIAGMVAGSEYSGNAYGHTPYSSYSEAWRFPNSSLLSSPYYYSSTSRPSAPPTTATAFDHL
DNA dC->dU-editing enzyme APOBEC-3A, sequence (P31941 whole entry): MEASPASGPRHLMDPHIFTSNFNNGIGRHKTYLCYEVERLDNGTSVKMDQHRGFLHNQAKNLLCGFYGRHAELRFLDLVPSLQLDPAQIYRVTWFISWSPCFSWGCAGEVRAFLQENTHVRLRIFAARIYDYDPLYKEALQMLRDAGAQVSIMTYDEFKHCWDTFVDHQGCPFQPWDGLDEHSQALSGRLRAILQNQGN
Nucleotide-binding oligomerization domain-containing protein 1, sequence (Q9Y239 whole entry, the tested form may be a part): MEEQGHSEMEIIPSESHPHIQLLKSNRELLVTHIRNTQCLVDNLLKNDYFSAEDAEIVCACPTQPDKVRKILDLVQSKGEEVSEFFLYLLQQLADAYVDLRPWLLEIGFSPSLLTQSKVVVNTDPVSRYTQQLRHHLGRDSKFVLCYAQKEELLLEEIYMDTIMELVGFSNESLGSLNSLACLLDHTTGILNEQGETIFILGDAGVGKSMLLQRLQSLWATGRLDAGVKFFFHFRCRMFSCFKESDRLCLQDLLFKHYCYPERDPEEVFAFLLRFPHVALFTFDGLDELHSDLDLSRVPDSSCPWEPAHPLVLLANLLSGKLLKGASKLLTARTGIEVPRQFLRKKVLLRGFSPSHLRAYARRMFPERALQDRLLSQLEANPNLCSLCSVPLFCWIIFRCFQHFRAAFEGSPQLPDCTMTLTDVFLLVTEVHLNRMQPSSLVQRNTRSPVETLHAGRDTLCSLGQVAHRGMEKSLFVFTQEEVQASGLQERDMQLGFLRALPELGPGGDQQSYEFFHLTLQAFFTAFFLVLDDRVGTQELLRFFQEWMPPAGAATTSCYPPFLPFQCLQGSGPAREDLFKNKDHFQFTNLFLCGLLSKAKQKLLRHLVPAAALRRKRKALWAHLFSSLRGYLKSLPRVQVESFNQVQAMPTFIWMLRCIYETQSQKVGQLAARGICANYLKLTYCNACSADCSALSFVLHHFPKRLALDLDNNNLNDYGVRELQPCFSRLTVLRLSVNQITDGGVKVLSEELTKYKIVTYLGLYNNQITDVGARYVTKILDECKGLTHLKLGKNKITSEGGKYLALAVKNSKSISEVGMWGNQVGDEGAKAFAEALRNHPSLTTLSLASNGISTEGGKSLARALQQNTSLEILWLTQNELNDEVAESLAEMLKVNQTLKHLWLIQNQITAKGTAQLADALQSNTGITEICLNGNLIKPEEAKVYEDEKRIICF

One may read the IC50 as the concentration at which inhibition is half-maximal. The AC50 is the concentration at which the activity in the assay is half-maximal. Broadly, the EC50 is the concentration giving half of the maximal effect. For `Cc1ccc(S(=O)(=O)NCc2ccc(C(=O)N3CCN(c4ccc([N+](=O)[O-])cc4)CC3)cc2)cc1`, the IC50 is > 20 µM (inactive) in the experiment on HEK293 [1]; 4.67 µM (active) with HEK293 [3]; 9.8 µM (active) in [6]; 11.4 µM (active) on Tumor necrosis factor; 16.2 µM (active) in the experiment with HEK293 [7]; 7.59 µM (active) in the experiment with HEK293 [9]. Besides, in the experiment with HEK293 [11], the IC50 was > 20 µM (inactive). The AC50 in experiment [2] is 39.8 µM (active); in experiment [8], 3.79 µM (active); on Paired box protein Pax-8, 6.91 µM (active); in [10], 11.7 µM (active). For the same compound, the half-maximal effective concentration (EC50) in [4] was 6.65 µM (active); in the experiment on HEK293 [5] it was 4.26 µM (active).
Take `Cc1ccc(N2C(=O)/C(=C/c3ccc(CN(CCC#N)S(C)(=O)=O)o3)C(=O)NC2=S)cc1`: the EC50 in [12] was 37.8 µM (active); in [13] it was 80.5 µM (active); in experiment [14], 36.2 µM (active); in experiment [15], > 300 µM (not active); in experiment [16] it was 40.4 µM (active).
`COc1ccc(Br)cc1/C(C)=N/NC1=NCCN1`: the results for the half-inhibitory concentration (IC50) in experiment [17], in experiment [18] and in experiment [19] were 3.47 µM (active), 4.74 µM (active) and > 80 µM (inactive), respectively.
Regarding `Cc1ccc(C)n1-c1n[nH]c(=S)[nH]1`, the IC50 was 13.7 µM (active) in experiment [20]; > 100 µM (inactive) on Phosphomannomutase 2; 41.8 µM (active) in experiment [21]; 6.12 µM (active) in [22]; > 100 µM (inactive) in experiment [23].

The values above are taken from ChEMBL document CHEMBL1201862, “PubChem BioAssay data set” (2004).
